Laboratory results taken from patent publication US4880817A, “O-functionalized derivatives of substituted isoquinolin-3-ols having cardiotonic and/or phosphodiesterase fraction III inhibiting properties and/or renal vasodilating properties” (Ortho Pharmaceutical Corporation, priority 1987, dated 1989).
Like-named read-outs stand apart in the source and are kept apart here.

Columns and labels:
[1] = system: adult mongrel dogs; assay: Acute in vivo cardiotonic activity in anesthetized dogs; design: species or system mongrel dog; settings: Canis lupus familiaris, iv, relative to controls; for change in vivo at 0.375 mg/kg: dose 0.375 mpk; for change in vivo at 0.875 mg/kg: dose 0.875 mpk; for change in vivo at 1.87 mg/kg: dose 1.87 mpk
Protocol: The acute in vivo cardiotonic activity of compounds prepared according to the present invention was determined according to a modification of the procedure described by Alousi et al., Circ.
In particular, adult mongrel dogs were anesthetized with sodium pentobarbital and were artificially respired. Arterial pressure was monitored via a femoral artery, and the pulse pressure was used to trigger a cardiotachometer for heart rate. Left ventricular pressure was determined with a Millar catheter, and dP/dT (the change in ventricular pressure with time) was derived. Cardiac output was determined by measuring ascending aortic blood flow with an electromagnetic flow probe, and myocardial contractile force was measured with a Walton Brodie strain gauge sutured to the right ventricle. Lead II EKG was also recorded.
A standard dose (10 μg/kg/min) of dopamine was administered to assess myocardial responsiveness.
Compounds of the invention were administered by intravenous infusion and the effects on cardiovascular parameters were determined.

[2] = system: adult mongrel dogs; assay: Renal vasodilating activity in anesthetized dogs; format: in vivo, mongrel dog; settings: Canis lupus familiaris
Protocol: Goldberg et al., J. Pharmacol. Exp. Ther., 163, 188 (1968), performed an investigation of the structural requirements for dopamine-like renal vasodilation of phenethylamines and apomorphine. The following procedure is a variation of the assay described in that report.
Adult mongrel dogs were anesthetized and surgically prepared for electromagnetic measurement of renal artery blood flow. A carotid artery was cannulated for measuring arterial blood pressure and drugs were administered intravenously or intraarterially (via the renal artery). Heart rate was monitored with a cardiotachometer. Renal vascular resistance was calculated as the ratio of mean arterial blood pressure to renal artery blood flow. Dopamine was infused intravenously at 3 μg/kg/min for ten minutes (at an infusion rate of about 1 ml/min) to determine responsiveness of each dog to renal dopamine receptor stimulation. Cumulative dose-response data were obtained by infusing a compound of this invention at progressively increasing (usually three-fold) infusion rates, each dose being infused for five minutes. The maximum percent change from pre-drug control in renal artery blood flow (or in renal vascular resistance) was determined for each infusion dose.
RBF, RVR, MABP, and HR values are percent changes in renal blood flow, renal vascular resistance, mean arterial blood pressure, and heart rate, respectively, relative to control values.

[3] = read-out: CF: percent change in cardiac force
[4] = read-out: HR: percent change in heart rate
[5] = read-out: MABP: percent change in mean arterial blood pressure
[6] = read-out: dP/dT: maximum percent change in left ventricular pressure with time
[7] = dose 6.2 mpk, relative to controls, read-out: HR: percent change in heart rate
[8] = dose 6.2 mpk, relative to controls, read-out: RBF: percent change in renal blood flow
[9] = dose 6.2 mpk, relative to controls, read-out: RVR: percent change in renal vascular resistance
[10] = read-out: HR: percent change in heart rate, dose 6.2 mpk, relative to controls
[11] = read-out: MABP: percent change in mean arterial blood pressure, dose 6.2 mpk, relative to controls
[12] = read-out: RBF: percent change in renal blood flow, dose 6.2 mpk, relative to controls
[13] = read-out: RVR: percent change in renal vascular resistance, dose 6.2 mpk, relative to controls
[14] = dose 6.2 mpk, relative to controls, read-out: MABP: percent change in mean arterial blood pressure

Compound: CCOc1cc2c(C)nc(OC(=O)CC)c([N+](=O)[O-])c2cc1OC [Cmpd 4]
- change in vivo at 0.375 mg/kg [1, 3]: 100%
- change in vivo at 0.375 mg/kg [1, 4]: 7%
- change in vivo at 0.375 mg/kg [1, 5]: -25%
- change in vivo at 0.375 mg/kg [1, 6]: 46%

Compound: COc1cc2c(C)nc(OC(=O)c3ccccc3)c([N+](=O)[O-])c2cc1OC [Cmpd 7]
- change in vivo at 0.875 mg/kg [1, 3]: 59%
- change in vivo at 0.875 mg/kg [1, 4]: 4%
- change in vivo at 0.875 mg/kg [1, 5]: -10%
- change in vivo at 0.875 mg/kg [1, 6]: 34%

Compound: CCOc1cc2c(C)nc(OC(=O)c3ccccc3)c([N+](=O)[O-])c2cc1OC [Cmpd 8]
- change in vivo at 0.375 mg/kg [1, 3]: 124%
- change in vivo at 0.375 mg/kg [1, 4]: 10%
- change in vivo at 0.375 mg/kg [1, 5]: -20%
- change in vivo at 0.375 mg/kg [1, 6]: 54%

Compound: COc1cc2c(C)nc(OC(=O)C(C)(C)C)c([N+](=O)[O-])c2cc1OC [Cmpd 12]
- change in vivo at 6.2 mg/kg [2, 7]: 12%
- change in vivo at 6.2 mg/kg [2, 8]: 38%
- change in vivo at 6.2 mg/kg [2, 9]: -26%
- change in vivo at 1.87 mg/kg [1, 3]: 70%
- change in vivo at 1.87 mg/kg [1, 4]: 14%
- change in vivo at 1.87 mg/kg [1, 5]: -10%
- change in vivo at 1.87 mg/kg [1, 6]: 51%

Compound: COc1cc2c(C)nc(OC(=O)N(C)C)c([N+](=O)[O-])c2cc1OC [Cmpd 13]
- change in vivo at 6.2 mg/kg [2, 10]: 12%
- change in vivo at 6.2 mg/kg [2, 11]: -5%
- change in vivo at 6.2 mg/kg [2, 12]: 8%
- change in vivo at 6.2 mg/kg [2, 13]: -12%
- change in vivo at 1.87 mg/kg [1, 3]: 49%
- change in vivo at 1.87 mg/kg [1, 4]: 6%
- change in vivo at 1.87 mg/kg [1, 5]: -8%
- change in vivo at 1.87 mg/kg [1, 6]: 24%

Compound: CCOc1cc2c([N+](=O)[O-])c(OC(=O)C(C)(C)C)nc(C)c2cc1OC [Cmpd 23]
- change in vivo at 1.87 mg/kg [1, 3]: 27%
- change in vivo at 1.87 mg/kg [1, 4]: 5%
- change in vivo at 1.87 mg/kg [1, 5]: 3%
- change in vivo at 1.87 mg/kg [1, 6]: 24%

Compound: COc1cc2c(C)nc(OS(=O)(=O)N(C)C)c([N+](=O)[O-])c2cc1OC [Cmpd 25]
- change in vivo at 6.2 mg/kg [2, 7]: 32%
- change in vivo at 6.2 mg/kg [2, 14]: -12%
- change in vivo at 6.2 mg/kg [2, 8]: 61%
- change in vivo at 6.2 mg/kg [2, 9]: -46%
- change in vivo at 1.87 mg/kg [1, 3]: 49%
- change in vivo at 1.87 mg/kg [1, 4]: 5%
- change in vivo at 1.87 mg/kg [1, 5]: 12%
- change in vivo at 1.87 mg/kg [1, 6]: 61%

Compound: CCN(CC)C(=O)Oc1nc(C)c2cc(OC)c(OC)cc2c1[N+](=O)[O-] [Cmpd 27, 3-Diethylcarbamyloxy-6,7-dimethoxy-1-methyl-4-nitroisoquinoline]
- change in vivo at 6.2 mg/kg [2, 10]: 13%
- change in vivo at 6.2 mg/kg [2, 11]: -12%
- change in vivo at 6.2 mg/kg [2, 13]: -30%
- change in vivo at 1.87 mg/kg [1, 3]: 87%
- change in vivo at 1.87 mg/kg [1, 4]: 46%
- change in vivo at 1.87 mg/kg [1, 5]: 17%
- change in vivo at 1.87 mg/kg [1, 6]: 41%

Compound: CCOc1cc2c(C)nc(OC(=O)N(CC)CC)c([N+](=O)[O-])c2cc1OC [Cmpd 28]
- change in vivo at 6.2 mg/kg [2, 10]: 5%
- change in vivo at 6.2 mg/kg [2, 11]: -18%
- change in vivo at 6.2 mg/kg [2, 12]: 50%
- change in vivo at 6.2 mg/kg [2, 13]: -45%
- change in vivo at 0.875 mg/kg [1, 3]: 71%
- change in vivo at 0.875 mg/kg [1, 4]: 27%
- change in vivo at 0.875 mg/kg [1, 5]: -4%
- change in vivo at 0.875 mg/kg [1, 6]: 70%

Compound: CCN(CC)c1c(OC(C)=O)nc(C)c2cc(OC)c(OC)cc12 [Cmpd 29, 3-Acetoxy-4-(N,N-diethylamino)-6,7-dimethoxy-1-methylisoquinoline 1/2 Hydrate]
- change in vivo at 1.87 mg/kg [1, 3]: 79%
- change in vivo at 1.87 mg/kg [1, 4]: 13%
- change in vivo at 1.87 mg/kg [1, 5]: 6%
- change in vivo at 1.87 mg/kg [1, 6]: 58%

Compound: CCC(=O)Nc1c(OC(=O)CC)nc(C)c2cc(OC)c(OC)cc12 [Cmpd 33, 6,7-Dimethoxy-1-methyl-4-[N-propanamido]-3-propanoyloxyisoquinoline]
- change in vivo at 6.2 mg/kg [2, 7]: -9%
- change in vivo at 6.2 mg/kg [2, 14]: -9%
- change in vivo at 6.2 mg/kg [2, 8]: 41%
- change in vivo at 6.2 mg/kg [2, 9]: -35%
- change in vivo at 1.87 mg/kg [1, 3]: 132%
- change in vivo at 1.87 mg/kg [1, 4]: 18%
- change in vivo at 1.87 mg/kg [1, 5]: 17%
- change in vivo at 1.87 mg/kg [1, 6]: 84%

Compound: COc1cc2c(C)nc(OC(=O)N(c3ccccc3)c3ccccc3)c(N)c2cc1OC [Cmpd 36]
- change in vivo at 1.87 mg/kg [1, 3]: 26%
- change in vivo at 1.87 mg/kg [1, 4]: 9%
- change in vivo at 1.87 mg/kg [1, 5]: -1%
- change in vivo at 1.87 mg/kg [1, 6]: 26%

Compound: COc1cc2c(C)nc(OC(=O)N(C)C)c(N)c2cc1OC [Cmpd 39]
- change in vivo at 1.87 mg/kg [1, 3]: 76%
- change in vivo at 1.87 mg/kg [1, 4]: 16%
- change in vivo at 1.87 mg/kg [1, 5]: -1%
- change in vivo at 1.87 mg/kg [1, 6]: 73%

Compound: CCCC(=O)Oc1nc(C)c2cc(OC)c(OC)cc2c1[N+](=O)[O-] [Cmpd 41]
- change in vivo at 1.87 mg/kg [1, 3]: 166%
- change in vivo at 1.87 mg/kg [1, 4]: 29%
- change in vivo at 1.87 mg/kg [1, 5]: -34%
- change in vivo at 1.87 mg/kg [1, 6]: 62%

Compound: CCCCNC(=O)Nc1c(OC(=O)N2CCNCC2)nc(C)c2cc(OC)c(OC)cc12 [Cmpd 80]
- change in vivo at 1.2 mg/kg ([2]; read-out: HR: percent change in heart rate, dose 1.2 mpk, relative to controls): 2%
- change in vivo at 1.2 mg/kg ([2]; read-out: MABP: percent change in mean arterial blood pressure, dose 1.2 mpk, relative to controls): 0%
- change in vivo at 1.2 mg/kg ([2]; read-out: RBF: percent change in renal blood flow, dose 1.2 mpk, relative to controls): 25%
- change in vivo at 1.2 mg/kg ([2]; read-out: RVR: percent change in renal vascular resistance, dose 1.2 mpk, relative to controls): -16%

Compound: CCCCCC(=O)Nc1c(OC(=O)N(CC)CC)nc(C)c2cc(OC)c(OC)cc12 [Cmpd 81]
- change in vivo at 6.2 mg/kg [2, 7]: -8%
- change in vivo at 6.2 mg/kg [2, 14]: 9%
- change in vivo at 6.2 mg/kg [2, 8]: 39%
- change in vivo at 6.2 mg/kg [2, 9]: -21%
